From patent US7943636B2 (dated 2011)

Structure (SMILES)	melting point
CCn1nc2c(N)nc3ccccc3c2c1CC1(O)CCCCC1	211.5 to 213 °C
CCn1nc2c(N)nc3ccccc3c2c1CC1(O)CCCC1	256 to 259 °C
CCn1nc2c(N)nc3ccccc3c2c1CC1(O)CCN(S(C)(=O)=O)CC1	268 to 270 °C
CCCn1nc2c(N)nc3ccccc3c2c1CC1CCOCC1	218 to 220 °C
CCn1nc2c(N)nc3c(c2c1CC1(O)CCCCC1)CCCC3	232 to 234 °C
CCn1nc2c(N)nc3ccccc3c2c1CC1CCOCC1	226 to 228 °C
CCCn1nc2c(N)nc3ncccc3c2c1CC1CCOCC1	252 to 255 °C
CCn1nc2c(N)nc3ccccc3c2c1CC1(O)CCOCC1	253 to 255 °C
Cn1nc2c(N)nc3ccccc3c2c1CC1(O)CCOCC1	260 to 262 °C (dec.)
Cn1nc2c(N)nc3ccccc3c2c1CC1(F)CCN(S(C)(=O)=O)CC1	283 to 285 °C
CCCn1nc2c(N)nc3ccccc3c2c1CC1(O)CCOCC1	209 to 211 °C
Cn1nc2c(N)nc3ccccc3c2c1CC1(F)CCOCC1	252 to 254 °C
CCn1nc2c(N)nc3ccccc3c2c1CC1(O)CCC1	245 to 247 °C
COCCn1nc2c(N)nc3ccccc3c2c1CC1CCOCC1	189 to 190 °C
CCn1nc2c(N)nc3ccccc3c2c1CC1(F)CCOCC1	275 to 277 °C
COCCn1nc2c(N)nc3ncccc3c2c1CC1CCOCC1	230 to 233 °C
CCn1nc2c(N)nc3ccccc3c2c1CC1(O)CCSCC1	251.5 to 255 °C

Results, then the compound that gave them:

melting point	Structure (SMILES)
205 to 207 °C	CCn1nc2c(N)nc3ccccc3c2c1CC1(F)CCN(C(=O)NC(C)C)CC1
241 to 243 °C	CC(=O)N1CCC(F)(Cc2c3c(nn2C)c(N)nc2ccccc23)CC1
268 to 270 °C (dec.)	CCCn1nc2c(N)nc3ccccc3c2c1CC1(F)CCN(S(C)(=O)=O)CC1
208.5 to 210 °C	CCCNC(=O)N1CCC(O)(Cc2c3c(nn2CC)c(N)nc2ccccc23)CC1
191 to 193 °C	CCCn1nc2c(N)nc3ccccc3c2c1CC1(O)CCC1
228 to 230 °C	CCn1nc2c(N)nc3ccccc3c2c1CC1(F)CCN(C(C)=O)CC1
269 to 271 °C	CCn1nc2c(N)nc3ccccc3c2c1CC1(F)CCN(S(C)(=O)=O)CC1
231 to 232.5 °C	CCn1nc2c(N)nc3ccccc3c2c1CC1(O)CCN(C(C)=O)CC1
241 to 244 °C	CC(C)NC(=O)N1CCC(F)(Cc2c3c(nn2C)c(N)nc2ccccc23)CC1
227 to 229 °C (dec.)	CCCn1nc2c(N)nc3ccccc3c2c1CC1(F)CCN(C(=O)NC(C)C)CC1
